Experimental data reported in PubChem BioAssay (NCI).
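Exposure lasted 48 hours, with cells grown in 96-well plates and compounds tested at five concentrations. Here, GI50 denotes the concentration required for 50% inhibition of growth. TGI marks complete inhibition of growth.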

Legend:
Assay in all cases: inhibition of tumour cell growth, NCI panel, 48 h
[1] = test system: 786-0 renal
[2] = test system: A498 renal
[3] = test system: A549 NSCLC
[4] = test system: ACHN renal
[5] = test system: BT-549 breast
[6] = test system: CAKI-1 renal
[7] = test system: CCRF-CEM leukemia
[8] = test system: COLO 205 colon
[9] = test system: DU-145 prostate
[10] = test system: EKVX NSCLC
[11] = test system: HCC-2998 colon
[12] = test system: HCT-116 colon
[13] = test system: HCT-15 colon
[14] = test system: HL-60(TB) leukemia
[15] = test system: HOP-62 NSCLC
[16] = test system: HT29 colon
[17] = test system: IGROV1 ovarian
[18] = test system: K-562 leukemia
[19] = test system: KM12 colon
[20] = test system: LOX IMVI melanoma
[21] = test system: M14 melanoma
[22] = test system: MALME-3M melanoma
[23] = test system: MCF7 breast
[24] = test system: MDA-MB-231 breast
[25] = test system: MDA-MB-435
[26] = test system: MDA-N
[27] = test system: MOLT-4 leukemia
[28] = test system: NCI-H226 lung
[29] = test system: NCI-H23 lung
[30] = test system: NCI-H460 lung
[31] = test system: NCI/ADR-RES ovarian
[32] = test system: OVCAR-3 ovarian
[33] = test system: OVCAR-4 ovarian
[34] = test system: OVCAR-5 ovarian
[35] = test system: OVCAR-8 ovarian
[36] = test system: PC-3 prostate
[37] = test system: RXF 393 renal
[38] = test system: SF-268 CNS
[39] = test system: SF-295 CNS
[40] = test system: SF-539 CNS
[41] = test system: SK-MEL-2 melanoma
[42] = test system: SK-MEL-28 melanoma
[43] = test system: SK-MEL-5 melanoma
[44] = test system: SK-OV-3 ovarian
[45] = test system: SN12C renal
[46] = test system: SNB-19 CNS
[47] = test system: SNB-75 CNS
[48] = test system: SW-620 colon
[49] = test system: TK-10 renal
[50] = test system: U251 CNS
[51] = test system: UACC-257 melanoma
[52] = test system: UO-31 renal
[53] = test system: HOP-92 NSCLC
[54] = test system: HS 578T breast
[55] = test system: NCI-H522 lung
[56] = test system: RPMI-8226 leukemia
[57] = test system: SR leukemia
[58] = test system: T-47D breast
[59] = test system: UACC-62 melanoma

For `C=Cc1nc2nnc(CCCCCCCCc3nnc4nc(C=C)[nH]n34)n2[nH]1`, the TGI [1] was greater than 100000 nM, the TGI [2] was greater than 100000 nM and the TGI [3] was greater than 100000 nM. The TGI [4] was greater than 100000 nM, the TGI [5] was greater than 100000 nM and the TGI [6] was greater than 100000 nM. It also gave a TGI [7] greater than 100000 nM, a TGI [8] greater than 100000 nM and a TGI [9] greater than 100000 nM. It also gave a TGI [10] greater than 100000 nM, a TGI [11] greater than 100000 nM and a TGI [12] greater than 100000 nM. For the same compound, the TGI [13] was greater than 100000 nM, the TGI [14] was greater than 100000 nM and the TGI [15] was greater than 100000 nM. For the same compound, the TGI [16] was greater than 100000 nM, the TGI [17] was greater than 100000 nM and the TGI [18] was greater than 100000 nM. It also gave a TGI [19] greater than 100000 nM, a TGI [20] greater than 100000 nM and a TGI [21] greater than 100000 nM. For the same compound, the TGI [22] was greater than 100000 nM, the TGI [23] was greater than 100000 nM and the TGI [24] was greater than 100000 nM. It also gave a TGI [25] greater than 100000 nM, a TGI [26] greater than 100000 nM and a TGI [27] greater than 100000 nM. For the same compound, the TGI [28] was greater than 100000 nM, the TGI [29] was greater than 100000 nM and the TGI [30] was greater than 100000 nM. The TGI [31] was greater than 100000 nM, the TGI [32] was greater than 100000 nM and the TGI [33] was greater than 100000 nM. For the same compound, the TGI [34] was greater than 100000 nM, the TGI [35] was greater than 100000 nM and the TGI [36] was greater than 100000 nM. For the same compound, the TGI [37] was greater than 100000 nM, the TGI [38] was greater than 100000 nM and the TGI [39] was greater than 100000 nM. For the same compound, the TGI [40] was greater than 100000 nM, the TGI [41] was greater than 100000 nM and the TGI [42] was greater than 100000 nM. The TGI [43] was greater than 100000 nM, the TGI [44] was greater than 100000 nM and the TGI [45] was greater than 100000 nM. The TGI [46] was greater than 100000 nM, the TGI [47] was greater than 100000 nM and the TGI [48] was greater than 100000 nM. For the same compound, the TGI [49] was greater than 100000 nM, the TGI [50] was greater than 100000 nM and the TGI [51] was greater than 100000 nM. The TGI [52] was greater than 100000 nM.

For `c1ccc2cc(C[n+]3ccn(CCCCCCCCCCCCn4cc[n+](Cc5ccc6ccccc6c5)c4)c3)ccc2c1`, the GI50 [1] was 1730 nM, the TGI [1] was 6930 nM and the GI50 [2] was 515 nM. It also gave a TGI [2] of 1620 nM, a GI50 [3] of 744 nM and a TGI [3] of 3570 nM. For the same compound, the GI50 [4] was 1330 nM, the TGI [4] was 7710 nM and the GI50 [5] was 467 nM. For the same compound, the TGI [5] was 1170 nM, the GI50 [6] was 3550 nM and the TGI [6] was 25000 nM. For the same compound, the GI50 [7] was 732 nM, the TGI [7] was 2400 nM and the GI50 [8] was 441 nM. For the same compound, the TGI [8] was 833 nM, the GI50 [9] was 1030 nM and the TGI [9] was 3800 nM. The GI50 [10] was 894 nM, the TGI [10] was 4200 nM and the GI50 [11] was 1090 nM. It also gave a TGI [11] of 4740 nM, a GI50 [12] of 848 nM and a TGI [12] of 3210 nM. The GI50 [13] was 1480 nM, the TGI [13] was 9150 nM and the GI50 [14] was 545 nM. The TGI [14] was 1080 nM, the GI50 [15] was 815 nM and the TGI [15] was 2650 nM. For the same compound, the GI50 [53] was 500 nM, the TGI [53] was 1400 nM and the GI50 [54] was 693 nM. It also gave a TGI [54] of 2480 nM, a GI50 [16] of 693 nM and a TGI [16] of 1870 nM. The GI50 [17] was 521 nM, the TGI [17] was 1160 nM and the GI50 [18] was 429 nM. For the same compound, the TGI [18] was 1190 nM, the GI50 [19] was 553 nM and the TGI [19] was 1410 nM. For the same compound, the GI50 [20] was 483 nM, the TGI [20] was 941 nM and the GI50 [21] was 835 nM. It also gave a TGI [21] of 3500 nM, a GI50 [22] of 469 nM and a TGI [22] of 1250 nM. For the same compound, the GI50 [23] was 512 nM, the TGI [23] was 1170 nM and the GI50 [24] was 866 nM. It also gave a TGI [24] of 2880 nM, a GI50 [25] of 682 nM and a TGI [25] of 2530 nM. For the same compound, the GI50 [27] was 508 nM, the TGI [27] was 1020 nM and the GI50 [28] was 984 nM. For the same compound, the TGI [28] was 5520 nM, the GI50 [29] was 722 nM and the TGI [29] was 2400 nM. For the same compound, the GI50 [30] was 814 nM, the TGI [30] was 2960 nM and the GI50 [55] was 470 nM. For the same compound, the TGI [55] was 1250 nM, the GI50 [31] was 8090 nM and the TGI [31] was 25000 nM. It also gave a GI50 [32] of 763 nM, a TGI [32] of 2400 nM and a GI50 [33] of 694 nM. The TGI [33] was 2530 nM, the GI50 [34] was 863 nM and the TGI [34] was 3680 nM. For the same compound, the GI50 [35] was 783 nM, the TGI [35] was 2890 nM and the GI50 [36] was 794 nM. For the same compound, the TGI [36] was 2810 nM, the GI50 [56] was 898 nM and the TGI [56] was 4150 nM. The GI50 [37] was 546 nM, the TGI [37] was 1670 nM and the GI50 [38] was 746 nM. For the same compound, the TGI [38] was 3010 nM, the GI50 [39] was 654 nM and the TGI [39] was 2130 nM. The GI50 [40] was 807 nM, the TGI [40] was 2910 nM and the GI50 [41] was 573 nM. The TGI [41] was 1270 nM, the GI50 [42] was 779 nM and the TGI [42] was 2860 nM. The GI50 [43] was 502 nM, the TGI [43] was 1040 nM and the GI50 [44] was 661 nM. It also gave a TGI [44] of 1800 nM, a GI50 [45] of 652 nM and a TGI [45] of 2090 nM. For the same compound, the GI50 [46] was 773 nM, the TGI [46] was 3490 nM and the GI50 [47] was 381 nM. It also gave a TGI [47] of 1340 nM, a GI50 [57] of 679 nM and a TGI [57] of 1670 nM. For the same compound, the GI50 [48] was 815 nM, the TGI [48] was 3300 nM and the GI50 [58] was 554 nM. It also gave a TGI [58] of 1780 nM, a GI50 [49] of 992 nM and a TGI [49] of 4450 nM. The GI50 [50] was 521 nM, the TGI [50] was 2530 nM and the GI50 [51] was 589 nM. It also gave a TGI [51] of 1530 nM, a GI50 [59] of 725 nM and a TGI [59] of 2430 nM. It also gave a GI50 [52] of 2660 nM and a TGI [52] of 8740 nM.
